The values that follow are results of earlier work, collected in patent EP4106725B1, “WATER-SOLUBLE SOLID DISPERSION OF QUERCETIN, FORMS THEREOF, A METHOD OF OBTAINING THEREOF, USE OF ALKALINE AGENT, AND A KIT” ("Scientific Industrial Centre "Borshchahivskiy Chemical …, priority 2020, dated 2021).

For data set [1] the following is noted: crystalline dehydrated state and dihydrate.

Each structure is given as a SMILES string.

By pKa is commonly meant the pH at which an ionisable group is half protonated. Regarding `O=C([O-])[O-].[Na+].[Na+]` [Na2CO3, sodium carbonate], the pKa (acidity constant of the alkaline agent) was 10.33.

Take `O=c1c(O)c(-c2ccc(O)c(O)c2)oc2cc(O)cc(O)c12` [quercetin, 2-(3,4-dihydroxyphenyl)-3,5,7-trihydroxy-4H-chromen-4-one]: under “hydroxylic group in 4'-position”, the “acidity constant value pKa1” value is listed as 6.62 ± 0.04. In addition, for the setting “hydroxylic group in 7-position”, the “acidity constant value pKa2” value is 9.7 ± 0.3. For the same molecule, the solubility in water in data set [1] is reported as ~ 1 mg/100 mL.
